How the values were obtained:
[1] = molecular target: C-domain of MALT1 (amino acids 329-824) (Homo sapiens (Human), UniProt Q9UDY8); assay: MALT1 biochemical assay (fluorescence lifetime enzyme activity assay); conditions: 60 min pre-incubation, 2.5 nM enzyme, 1 μM peptide substrate
Experimental: The readout parameter is the increase of fluorescence lifetime over time, proportional to enzyme activity.
The assay employs a short peptide substrate labeled with the single fluorophore PT14 as a fluorescence lifetime probe sensitive to the cleavage state of the substrate (PT14: 6-(9-oxo-9H-acridin-10-yl)-hexanoate, AssayMetrics, UK). […] The assay buffer consists of 200 mM Tris/HCl at pH 7.5, 0.8 M Na citrate, 100 μM EGTA, 100 μM DTT and 0.05% (w/v) CHAPS. […] Test compounds were dissolved in 100% (v/v) DMSO or a mixture containing 90% (v/v) DMSO and 10% (v/v) H2O at a stock concentration of 100 mM. Serial dilutions of test compounds were prepared using either 100% (v/v) DMSO or a mixture containing 90% (v/v) DMSO and 10% (v/v) H2O.

[2] = system: Human IL2 promoter; assay: Human IL2 promoter reporter gene assay (RGA) in Jurkat cells; assay type: cell-based; conditions: Jurkat clone K22 290_H23, anti-CD28 mAb + PMA stimulation 5.5 h
Experimental: Human IL2 Promoter Reporter Gene Assay (RGA) in Jurkat Cells
The transfected Jurkat clone K22 290_H23 was propagated in RPMI 1640 supplemented with 10% heat inactivated fetal calf serum, 50 μM 2-mercaptoethanol and 1 mg/ml Geneticin. The cell concentration should not exceed 1×10e6/ml during culturing. The cells should not exceed passage 30. Prior to the assay the cells were washed and prepared to the concentration of 2×10e6 cells/ml.
Compound dilutions were made as 2×-concentrated solutions then diluted 1/2 by addition to cells. Two hundred and fifty μl of compound dilution and 250 μl of cells were mixed together in wells of a 96-deep well plate. Cells/compounds premix were incubated 30 min at 37° C. and 5% CO2 directly in the deep well plate.
After pre-incubation of cells with compounds, cells were stimulated with anti-CD28 mAb (clone 15E8) at 3 μg/ml+PMA at 1 μg/ml. Both co-stimulants were diluted in culture medium at a 10×-concentrated solution. 10 μl of co-stimulants were pipetted into the white 96-well plates and 100 μl of cell/compound mix was immediately added in duplicates. The cells were stimulated for 5.5 h at 37° C. and 5% CO2.
After cell stimulation, 50 μl of BriteLitePlus reagent (Perkin Elmer) was added to each well and the bioluminescence was measured with a Wallac EnVision reader (Perkin Elmer).

[3] = molecular target: cIAP2-MALT1 fusion protein (Homo sapiens, UniProt Q9UDY8); assay: cell-based
cIAP2-MALT1 fusion protein, sequence (Q9UDY8 2-824 limits assumed): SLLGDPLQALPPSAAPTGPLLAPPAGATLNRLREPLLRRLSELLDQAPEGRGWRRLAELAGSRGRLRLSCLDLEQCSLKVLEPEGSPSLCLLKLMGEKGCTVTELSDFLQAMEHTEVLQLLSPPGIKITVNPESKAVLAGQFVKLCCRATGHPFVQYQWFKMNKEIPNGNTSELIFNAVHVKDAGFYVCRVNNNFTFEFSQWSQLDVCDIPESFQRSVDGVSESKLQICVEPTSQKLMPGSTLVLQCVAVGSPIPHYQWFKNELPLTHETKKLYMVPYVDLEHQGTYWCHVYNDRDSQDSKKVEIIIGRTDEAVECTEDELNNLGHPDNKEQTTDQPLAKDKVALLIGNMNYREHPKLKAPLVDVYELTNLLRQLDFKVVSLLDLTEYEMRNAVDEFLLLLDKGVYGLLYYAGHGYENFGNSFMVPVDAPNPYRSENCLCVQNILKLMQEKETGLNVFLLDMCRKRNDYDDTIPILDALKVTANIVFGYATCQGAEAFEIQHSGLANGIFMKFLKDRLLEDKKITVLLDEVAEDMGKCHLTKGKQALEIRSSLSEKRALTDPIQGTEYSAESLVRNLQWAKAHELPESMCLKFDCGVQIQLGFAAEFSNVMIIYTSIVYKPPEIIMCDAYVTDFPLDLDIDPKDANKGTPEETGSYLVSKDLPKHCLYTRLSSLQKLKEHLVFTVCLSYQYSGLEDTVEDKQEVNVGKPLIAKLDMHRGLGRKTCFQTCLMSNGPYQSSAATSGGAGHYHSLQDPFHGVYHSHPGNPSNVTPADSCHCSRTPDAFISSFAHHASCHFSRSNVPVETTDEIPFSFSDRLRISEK
Experimental: For the measurement of compound inhibition, 0.25 μl of test compound were mixed with 12.5 μl of enzyme in wells of the 384-well plates, and incubated for 60 minutes at room temperature (22° C.). After that, 12.5 μl of substrate was added, and the enzymatic reaction was allowed to proceed for 60 minutes at room temperature (22° C.). […] The DMSO content was between 0.9 and 1% (v/v). […] The IC50 value was calculated from the plot of percentage inhibition versus inhibitor concentration using non-linear regression analysis software (Origin, OriginLab Corporation, USA). The data were fitted using a 4 Parameter Logistic Model, characterized by the following equation: y=A2+(A1−A2)/(1+(x/IC50)^p) where y is the %-inhibition at the inhibitor concentration, x. A1 is the lowest inhibition value, and A2 the maximum inhibition value.

C-domain of MALT1 (amino acids 329-824), sequence (Q9UDY8 329-824): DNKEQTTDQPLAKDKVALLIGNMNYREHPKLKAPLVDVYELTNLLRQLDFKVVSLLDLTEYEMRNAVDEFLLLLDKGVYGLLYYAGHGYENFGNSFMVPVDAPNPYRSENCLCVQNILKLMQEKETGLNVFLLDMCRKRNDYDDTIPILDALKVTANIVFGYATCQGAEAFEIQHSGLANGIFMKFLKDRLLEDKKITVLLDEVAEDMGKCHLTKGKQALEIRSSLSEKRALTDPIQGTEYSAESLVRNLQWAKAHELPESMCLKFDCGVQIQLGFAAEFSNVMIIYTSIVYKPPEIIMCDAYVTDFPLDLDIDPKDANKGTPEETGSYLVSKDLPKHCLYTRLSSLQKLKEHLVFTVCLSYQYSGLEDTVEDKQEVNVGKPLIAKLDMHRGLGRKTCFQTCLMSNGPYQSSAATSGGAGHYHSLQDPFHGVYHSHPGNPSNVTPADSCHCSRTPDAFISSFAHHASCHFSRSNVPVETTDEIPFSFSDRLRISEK

Row | Compound | IC50 [1] | IC50 [2] | IC50 [3]
1 | C[C@H](O[C@@H]1CCOC1)c1c(NC(=O)Nc2cnc(-n3nccn3)c(Cl)c2)cnc2cc(Cl)nn12 [Example 100, 1-(5-chloro-6-(2H-1,2,3-triazol-2-yl)pyridin-3-yl)-3-(2-chloro-7-((S)-1-(((R)-tetrahydrofuran-3-yl)oxy)ethyl)pyrazolo[1,5-a]pyrimidin-6-yl)urea] | 19 nM | 84 nM | 
2 | C[C@H](OC[C@@H]1CCOC1)c1c(NC(=O)Nc2cnc(-n3nccn3)c(Cl)c2)cnc2cc(Cl)nn12 [Example 103, 1-(5-chloro-6-(2H-1,2,3-triazol-2-yl)pyridin-3-yl)-3-(2-chloro-7-((S)-1-(((R)-tetrahydrofuran-3-yl)methoxy)ethyl)pyrazolo[1,5-a]pyrimidin-6-yl)urea] | 5 nM | 50 nM | 
3 | CN[C@H](c1c(NC(=O)Nc2cnc(-n3nccn3)c(Cl)c2)cnc2cc(Cl)nn12)C(C)C [Example 124, (S)-1-(5-chloro-6-(2H-1,2,3-triazol-2-yl)pyridin-3-yl)-3-(2-chloro-7-(2-methyl-1-(methylamino)propyl)pyrazolo[1,5-a]pyrimidin-6-yl)urea] | 8 nM | 41 nM | 
4 | Cc1cc(CO)nn1-c1ccc(NC(=O)Nc2cnc3cc(Cl)nn3c2C(C)C)cc1Cl [Example 28, 1-(3-chloro-4-(3-(hydroxymethyl)-5-methyl-1H-pyrazol-1-yl)phenyl)-3-(2-chloro-7-isopropylpyrazolo[1,5-a]pyrimidin-6-yl)urea] |  |  | 215 nM
5 | CO[C@@H](C)c1c(NC(=O)Nc2cnc(-n3nccn3)c(C(F)(F)F)c2)cnc2cc(F)nn12 [Example 94, (S)-1-(6-(2H-1,2,3-triazol-2-yl)-5-(trifluoromethyl)pyridin-3-yl)-3-(2-fluoro-7-(1-methoxyethyl)pyrazolo[1,5-a]pyrimidin-6-yl)urea] | 2 nM | 16 nM | 
6 | COC[C@@H](C)c1c(NC(=O)Nc2cnc(-n3nccn3)c(C(F)(F)F)c2)cnc2cc(Cl)nn12 [Example 110, (S)-1-(6-(2H-1,2,3-triazol-2-yl)-5-(trilfuoromethyl)pyridin-3-yl)-3-(2-chloro-7-(1-methoxypropan-2-yl)pyrazolo[1,5-a]pyrimidin-6-yl)urea] | 9 nM | 115 nM | 
7 | Cn1ccnc1-c1c(NC(=O)Nc2cnc(-n3nccn3)c(Cl)c2)cnc2cc(Cl)nn12 [Example 86, 1-(5-chloro-6-(2H-1,2,3-triazol-2-yl)pyridin-3-yl)-3-(2-chloro-7-(1-methyl-1H-imidazol-2-yl)pyrazolo[1,5-a]pyrimidin-6-yl)urea] |  |  | 569 nM
8 | COC[C@H](C)c1c(NC(=O)Nc2cnc(-n3nccn3)c(C(F)(F)F)c2)cnc2cc(Cl)nn12 [Example 111, (R)-1-(6-(2H-1,2,3-triazol-2-yl)-5-(trifluoromethyl)pyridin-3-yl)-3-(2-chloro-7-(1-methoxypropan-2-yl)pyrazolo[1,5-a]pyrimidin-6-yl)urea] | 3 nM | 54 nM | 
9 | CO[C@@H](C)c1c(NC(=O)Nc2cnc(-n3nccn3)c(Cl)c2)cnc2cc(F)nn12 [Example 95, (S)-1-(5-chloro-6-(2H-1,2,3-triazol-2-yl)pyridin-3-yl)-3-(2-fluoro-7-(1-methoxyethyl)pyrazolo[1,5-a]pyrimidin-6-yl)urea] | 2 nM | 13 nM | 
10 | CO[C@@H](C)c1c(NC(=O)Nc2cnc(-n3nccn3)c(Cl)c2)cnc2cc(C#N)nn12 [Example 96, (S)-1-(5-chloro-6-(2H-1,2,3-tirazol-2-yl)pyridin-3-yl)-3-(2-cyano-7-(1-methoxyethyl)pyrazolo[1,5-a]pyrimidin-6-yl)urea] | 10 nM | 49 nM | 
11 | CO[C@@H](C)c1c(NC(=O)Nc2cc(Cl)cnc2OCCN(C)C)cnc2cc(Cl)nn12 [Example 99, (S)-1-(5-chloro-2-(2-(dimethylamino)ethoxy)pyridin-3-yl)-3-(2-chloro-7-(1-methoxyethyl)pyrazolo[1,5-a]pyrimidin-6-yl)urea] | 21 nM | 41 nM | 
12 | CN(C)C1(c2c(NC(=O)Nc3cnc(-n4nccn4)c(C(F)(F)F)c3)cnc3cc(Cl)nn23)CC1 [Example 107, 1-(6-(2H-1,2,3-triazol-2-yl)-5-(trifluoromethyl)pyridin-3-yl)-3-(2-chloro-7-(1-(dimethylamino)cyclopropyl)pyrazolo[1,5-a]pyrimidin-6-yl)urea] | 13 nM | 60 nM | 
13 | CN[C@@H](C)c1c(NC(=O)Nc2cnc(-n3nccn3)c(Cl)c2)cnc2cc(Cl)nn12 [Example 119, (S)-1-(5-chloro-6-(2H-1,2,3-triazol-2-yl)pyridin-3-yl)-3-(2-chloro-7-(1-(methylamino)ethyl)pyrazolo[1,5-a]pyrimidin-6-yl)urea] |  |  | 157 nM
14 | CO[C@@H](C)c1c(NC(=O)Nc2ccnc(C(F)(F)F)c2)cnc2cc(F)nn12 [Example 7, (S)-1-(2-fluoro-7-(1-methoxyethyl)pyrazolo[1,5-a]pyrimidin-6-yl)-3-(2-(trifluoromethyl)pyridin-4-yl)urea] | 8 nM | 30 nM | 
15 | Cc1cc2ncc(NC(=O)Nc3cnc(-n4nccn4)c(Cl)c3)c(C3(C)CCCO3)n2n1 (centres unmarked) [Example 104, 1-(5-chloro-6-(2H-1,2,3-triazol-2-yl)pyridin-3-yl)-3-(2-methyl-7-(2-methyltetrahydrofuran-2-yl)pyrazolo[1,5-a]pyrimidin-6-yl)urea] | 2 nM | 24 nM | 
16 | C[C@H](O[C@H]1CCOC1)c1c(NC(=O)Nc2cnc(-n3nccn3)c(Cl)c2)cnc2cc(Cl)nn12 [Example 101, 1-(5-chloro-6-(2H-1,2,3-triazol-2-yl)pyridin-3-yl)-3-(2-chloro-7-((S)-1-(((S)-tetrahydrofuran-3-yl)oxy)ethyl)pyrazolo[1,5-a]pyrimidin-6-yl)urea] | 5 nM | 25 nM | 
17 | CO[C@@H](C)c1c(NC(=O)Nc2cnc(-n3nccn3)c(C(F)F)c2)cnc2cc(Cl)nn12 [Example 89, (S)-1-(2-chloro-7-(1-methoxyethyl)pyrazolo[1,5-a]pyrimidin-6-yl)-3-(5-(difluoromethyl)-6-(2H-1,2,3-triazol-2-yl)pyridin-3-yl)urea] | 3 nM | 46 nM | 
18 | COCCO[C@@H](C)c1c(NC(=O)Nc2cnc(OC(F)F)c(Cl)c2)cnc2cc(Cl)nn12 [Example 97, (S)-1-(5-chloro-6-(difluoromethoxy)pyridin-3-yl)-3-(2-chloro-7-(1-(2-methoxyethoxy)ethyl)pyrazolo[1,5-a]pyrimidin-6-yl)urea] | 3 nM | 68 nM | 
19 | CO[C@@H](C)c1c(NC(=O)Nc2ccnc(C#N)c2)cnc2cc(Cl)nn12 [Example 105, (S)-1-(2-chloro-7-(1-methoxyethyl)pyrazolo[1,5-a]pyrimidin-6-yl)-3-(2-cyanopyridin-4-yl)urea] | 11 nM | 59 nM | 
20 | CN1CCOCC1c1c(NC(=O)Nc2cnc(-n3nccn3)c(Cl)c2)cnc2cc(Cl)nn12 (centres unmarked) [Example 125, 1-(5-chloro-6-(2H-1,2,3-triazol-2-yl)pyridin-3-yl)-3-(2-chloro-7-(4-methylmorpholin-3-yl)pyrazolo[1,5-a]pyrimidin-6-yl)urea] | 9 nM | 138 nM | 
21 | CC(C)(C)OC(=O)N1CCOC(c2c(NC(=O)Nc3cnc(-n4nccn4)c(Cl)c3)cnc3cc(Cl)nn23)C1 (centres unmarked) [Example 66, tert-butyl 2-(2-chloro-6-(3-(5-chloro-6-(2H-1,2,3-triazol-2-yl)pyridin-3-yl)ureido)pyrazolo[1,5-a]pyrimidin-7-yl)morpholine-4-carboxylate] |  |  | 241 nM
22 | COCC(OC)c1c(NC(=O)Nc2ccnc(C(F)(F)F)c2)cnc2cc(Cl)nn12 (centres unmarked) [Example 109, 1-(2-chloro-7-(1,2-dimethoxyethyl)pyrazolo[1,5-a]pyrimidin-6-yl)-3-(2-(trifluoromethyl)pyridin-4-yl)urea] | 53 nM | 218 nM | 
23 | CO[C@@H](C)c1c(NC(=O)Nc2ccnc(C(F)F)c2)cnc2cc(Cl)nn12 [Example 92, (S)-1-(2-chloro-7-(1-methoxyethyl)pyrazolo[1,5-a]pyrimidin-6-yl)-3-(2-(difluoromethyl)pyridin-4-yl)urea] | 9 nM | 46 nM | 
24 | CO[C@@H](C)c1c(NC(=O)Nc2cnc(OC(F)F)c(Cl)c2)cnc2cc(Cl)nn12 [Example 93, (S)-1-(5-chloro-6-(difluoromethoxy)pyridin-3-yl)-3-(2-chloro-7-(1-methoxyethyl)pyrazolo[1,5-a]pyrimidin-6-yl)urea] | 1 nM | 157 nM | 

Source: patent publication US9815842B2, “Pyrazolo pyrimidine derivatives and their use as MALT1 inhibitors” (Novartis AG, priority 2014, dated 2017)
